Laboratory results: patent US11149031B2, “Substituted N-(3-fluoropropyl)-pyrrolidine compounds, processes for their preparation and therapeutic uses thereof” (SANOFI, priority 2016, dated 2021)
Read-outs that look alike come from different tables or passages of the source.

Legend:
[1] = system: MCF7 cells expressing mutant estrogen receptor Tyr 537 Ser; assay: Test B: cell proliferation/viability assay (CellTiter-Glo) on MCF7 Tyr 537 Ser mutant; format: cell-based; conditions: Homo sapiens, MCF7, 168 h, MCF7 cells expressing ER Tyr 537 Ser mutant, 7 days of compound exposure, read-out: proliferation MCF7 Y537S IC50
Outline: (§1)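 Parental MCF7 or MCF7 lines transfected with Tyr 537 Ser or Asp 538 Gly ER mutants (selected for estradiol-independent growth) were grown in phenol red-free MEM with 5% charcoal dextran-stripped FBS. Cells were treated with 9-point 1:5 dilutions (3-0.000001 μM final) for 7 days, then read by CellTiter-Glo luminescence.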

[2] = biological target: His6-ERα298-554 WT (ERα ligand-binding domain) (Homo sapiens (Human), UniProt P03372); assay: Test A: biochemical antagonist activity, LanthaScreen TR-FRET ERα coactivator assay, WT; conditions: read-out: Antagonism WT IC50
Chain of His6-ERα298-554 WT (ERα ligand-binding domain) (P03372 298-554): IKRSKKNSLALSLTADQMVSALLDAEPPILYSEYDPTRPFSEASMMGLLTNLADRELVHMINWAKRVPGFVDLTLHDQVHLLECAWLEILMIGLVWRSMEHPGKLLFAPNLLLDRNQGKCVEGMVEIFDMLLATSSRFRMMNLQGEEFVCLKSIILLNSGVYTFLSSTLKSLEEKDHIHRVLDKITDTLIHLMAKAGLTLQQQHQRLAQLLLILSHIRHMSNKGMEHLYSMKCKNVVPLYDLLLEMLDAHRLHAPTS
Outline: (§2)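 His6-ERα LBD (aa 298–554), 0.5 nM, with Tb-anti-His6 antibody, 250 nM PGC1a peptide and 3 nM (or 10 nM) estradiol in pH 7.4 potassium phosphate/DTT buffer; incubated with compound overnight at room temperature. IC50 from 4-parameter logistic fit of TR-FRET 520:495 nm ratio.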

[3] = biological target: His6-ERα298-554 D538G mutant (ERα ligand-binding domain) (Homo sapiens (Human), UniProt P03372, D538G); assay: Test A: biochemical antagonist activity, LanthaScreen TR-FRET ERα coactivator assay, D538G mutant; conditions: read-out: Antagonism D538G IC50
Chain of His6-ERα298-554 D538G mutant (ERα ligand-binding domain) (P03372 298-554 D538G): as the sequence (P03372 298-554) above, with D241G counted along it
Outline: as §2

[4] = system: MCF7 cells expressing mutant estrogen receptor Asp 538 Gly; assay: Test B: cell proliferation/viability assay (CellTiter-Glo) on MCF7 Asp 538 Gly mutant; format: cell-based; conditions: Homo sapiens, MCF7, 168 h, MCF7 cells expressing ER Asp 538 Gly mutant, 7 days of compound exposure, read-out: proliferation MCF7 D538G IC50
Outline: as §1

[5] = biological target: His6-ERα298-554 Y537S mutant (ERα ligand-binding domain) (Homo sapiens (Human), UniProt P03372, Y537S); assay: Test A: biochemical antagonist activity, LanthaScreen TR-FRET ERα coactivator assay, Y537S mutant; conditions: read-out: Antagonism Y537S IC50
Chain of His6-ERα298-554 Y537S mutant (ERα ligand-binding domain) (P03372 298-554 Y537S): as the sequence (P03372 298-554) above, with Y240S counted along it
Outline: as §2

[6] = system: MCF7 cells (breast tumor cells) WT; assay: Test B: cell proliferation/viability assay (CellTiter-Glo) on MCF7 WT; format: cell-based; conditions: Homo sapiens, MCF7, 168 h, 7 days of compound exposure
Outline: as §1

ERα in MCF7 cells = ERα in MCF7 cells (Homo sapiens (Human), UniProt P03372); assay: Test C: estrogen receptor degradation activity, ERα in cell western assay in MCF7 cells; format: cell-based; conditions: for DC50: 4 hours post compound addition, ERα in cell western, read-out: Degradation IC50; for % Degradation at 3 μM: 4 hours, relative to fulvestrant
Chain of ERα in MCF7 cells (P03372 whole entry): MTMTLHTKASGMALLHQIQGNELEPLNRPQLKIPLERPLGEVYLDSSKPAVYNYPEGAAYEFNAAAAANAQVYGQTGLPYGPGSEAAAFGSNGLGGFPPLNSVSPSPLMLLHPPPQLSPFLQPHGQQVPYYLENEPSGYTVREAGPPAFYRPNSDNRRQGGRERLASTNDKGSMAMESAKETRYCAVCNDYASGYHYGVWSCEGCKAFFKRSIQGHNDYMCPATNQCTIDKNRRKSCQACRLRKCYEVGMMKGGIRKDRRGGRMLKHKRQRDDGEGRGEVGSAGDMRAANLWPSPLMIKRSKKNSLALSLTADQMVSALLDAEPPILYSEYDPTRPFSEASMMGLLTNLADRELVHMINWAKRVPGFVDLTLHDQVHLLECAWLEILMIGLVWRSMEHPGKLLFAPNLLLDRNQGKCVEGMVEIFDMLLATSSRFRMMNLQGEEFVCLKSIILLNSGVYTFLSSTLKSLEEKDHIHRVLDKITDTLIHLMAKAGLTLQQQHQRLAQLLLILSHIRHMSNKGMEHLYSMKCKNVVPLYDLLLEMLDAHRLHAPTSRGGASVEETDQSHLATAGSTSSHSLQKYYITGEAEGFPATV
Outline: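 MCF7 cells in phenol red-free MEM alpha with 5% charcoal-dextran stripped FBS were treated 4 h with compound (9-point 1:5 dilutions, 3–0.000018 μM final; fulvestrant 0.1 μM as positive control). Fixed cells were immunostained for ERα (Alexa 488) and counterstained with Syto-64 for DNA.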

[7] = asterisk (*): protocol using 10 nM estradiol

Row | Structure (SMILES) | IC50 [1] [nM] | IC50 [2, 7] [nM] | IC50 [3, 7] [nM] | IC50 [4] [nM] | IC50 [5, 7] [nM] | IC50 [6] [nM] | DC50 (ERα in MCF7 cells) [nM] | % Degradation at 3 μM (ERα in MCF7 cells) [%] | IC50 ([2]; protocol with 3 nM estradiol) [nM] | IC50 ([3]; protocol with 3 nM estradiol) [nM] | IC50 ([5]; protocol with 3 nM estradiol) [nM]
1 | Oc1ccc2c(c1)SCCC(c1ccc3c(c1)OC(F)(F)O3)=C2c1ccc(O[C@H]2CCN(CCCF)C2)cc1 [Example 193, 4-(2,2-difluoro-1,3-benzodioxol-5-yl)-5-[4-[(3S)-1-(3-fluoropropyl)pyrrolidin-3-yl]oxyphenyl]-2,3-dihydro-1-benzothiepin-8-ol] | 5 | 1 | 25 | 0.5 | 20 | 0.3 | 0.2 | 91 | – | – | –
2 | CS(=O)(=O)c1ccc(C2=C(c3ccc(O[C@H]4CCN(CCCF)C4)cc3)c3ccc(O)cc3SCC2)cc1 [Example 194, 5-[4-[(3S)-1-(3-fluoropropyl)pyrrolidin-3-yl]oxyphenyl]-4-(4-methylsulfonylphenyl)-2,3-dihydro-1-benzothiepin-8-ol] | 3 | 10 | 206 | 0.4 | 141 | 0.2 | 0.2 | 89 | – | – | –
3 | CCOc1cc(C2=C(c3ccc(O[C@H]4CCN(CCCF)C4)cc3)c3ccc(O)cc3SCC2)ccc1F [Example 195, 4-(3-ethoxy-4-fluoro-phenyl)-5-[4-[(3S)-1-(3-fluoropropyl)pyrrolidin-3-yl]oxyphenyl]-2,3-dihydro-1-benzothiepin-8-ol] | 3 | 14 | 335 | 0.7 | 170 | 0.3 | 0.4 | 97 | – | – | –
4 | CCOc1ccc(C2=C(c3ccc(O[C@H]4CCN(CCCF)C4)cc3)c3ccc(O)cc3SCC2)c(F)c1 [Example 196, 4-(4-ethoxy-2-fluoro-phenyl)-5-[4-[(3S)-1-(3-fluoropropyl)pyrrolidin-3-yl]oxyphenyl]-2,3-dihydro-1-benzothiepin-8-ol] | 6 | 3 | 63 | 1 | 36 | 0.4 | 0.3 | 93 | – | – | –
5 | CC1Cc2cc(C3=C(c4ccc(O[C@H]5CCN(CCCF)C5)cc4)c4ccc(O)cc4SCC3)ccc2O1 (stereo partly drawn) [Example 197, 5-[4-[(3S)-1-(3-fluoropropyl)pyrrolidin-3-yl]oxyphenyl]-4-(2-methyl-2,3-dihydrobenzofuran-5-yl)-2,3-dihydro-1-benzothiepin-8-ol] | 5 | 1 | 20 | 0.6 | 13 | 0.3 | 0.2 | 88 | – | – | –
6 | CC1(C)Cc2cc(C3=C(c4ccc(O[C@H]5CCN(CCCF)C5)cc4)c4ccc(O)cc4SCC3)ccc2N1 [Example 198, 4-(2,2-dimethylindolin-5-yl)-5-[4-[(3S)-1-(3-fluoropropyl)pyrrolidin-3-yl]oxyphenyl]-2,3-dihydro-1-benzothiepin-8-ol] | 6 | – | – | 1 | – | 0.4 | 0.2 | 87 | 1 | 8 | 6
7 | CONC(=O)c1cc(C2=C(c3ccc(O[C@H]4CCN(CCCF)C4)cc3)c3ccc(O)cc3SCC2)ccc1F [Example 199, 2-fluoro-5-[5-[4-[(3S)-1-(3-fluoropropyl)pyrrolidin-3-yl]oxyphenyl]-8-hydroxy-2,3-dihydro-1-benzothiepin-4-yl]-N-methoxy-benzamide] | 4 | 21 | 456 | 0.2 | 316 | 0.2 | 0.4 | 94 | – | – | –
8 | CCNc1ccc(C2=C(c3ccc(O[C@H]4CCN(CCCF)C4)cc3)c3ccc(O)cc3SCC2)c(F)c1 [Example 200, 4-[4-(ethylamino)-2-fluoro-phenyl]-5-[4-[(3S)-1-(3-fluoropropyl)pyrrolidin-3-yl]oxyphenyl]-2,3-dihydro-1-benzothiepin-8-ol] | 12 | 3 | 51 | 2 | 33 | 0.7 | 0.5 | 91 | – | – | –
9 | CC1(C)Cc2cc(C3=C(c4ccc(O[C@H]5CCN(CCCF)C5)cc4)c4ccc(O)cc4SCC3)ccc2O1 [Example 201, 4-(2,2-dimethyl-3H-benzofuran-5-yl)-5-[4-[(3S)-1-(3-fluoropropyl)pyrrolidin-3-yl]oxyphenyl]-2,3-dihydro-1-benzothiepin-8-ol] | 8 | 1 | 21 | 1 | 15 | 0.2 | 0.8 | 85 | – | – | –
10 | C[C@@H]1Cc2cc(C3=C(c4ccc(O[C@H]5CCN(CCCF)C5)cc4)c4ccc(O)cc4SCC3)ccc2O1 [Example 202, 5-[4-[(3S)-1-(3-fluoropropyl)pyrrolidin-3-yl]oxyphenyl]-4-[(2R)-2-methyl-2,3-dihydrobenzofuran-5-yl]-2,3-dihydro-1-benzothiepin-8-ol] | 6 | 1 | 15 | 1 | 11 | 0.4 | 0.5 | 89 | – | – | –
11 | C[C@H]1Cc2cc(C3=C(c4ccc(O[C@H]5CCN(CCCF)C5)cc4)c4ccc(O)cc4SCC3)ccc2O1 [Example 204, 5-[4-[(3S)-1-(3-fluoropropyl)pyrrolidin-3-yl]oxyphenyl]-4-[(2S)-2-methyl-2,3-dihydrobenzofuran-5-yl]-2,3-dihydro-1-benzothiepin-8-ol] | 5 | 24 | 24 | 0.8 | 15 | 0.4 | 0.6 | 88 | – | – | –
12 | Cc1ccc(C2=C(c3ccc(O[C@H]4CCN(CCCF)C4)nc3)c3ccc(O)cc3SCC2)c(Cl)c1 [Example 206, 4-(2-chloro-4-methyl-phenyl)-5-[6-[(3S)-1-(3-fluoropropyl)pyrrolidin-3-yl]oxy-3-pyridyl]-2,3-dihydro-1-benzothiepin-8-ol] | 4 | 0.7 | 13 | 0.7 | 9 | 0.3 | 0.4 | 85 | – | – | –
13 | Oc1ccc2c(c1)SCCC(c1ccc(OC(F)F)c(F)c1)=C2c1ccc(O[C@H]2CCN(CCCF)C2)nc1 [Example 207, 4-[4-(difluoromethoxy)-3-fluoro-phenyl]-5-[6-[(3S)-1-(3-fluoropropyl)pyrrolidin-3-yl]oxy-3-pyridyl]-2,3-dihydro-1-benzothiepin-8-ol] | 2 | 2 | 9 | 0.3 | 6 | 0.1 | 0.5 | 85 | – | – | –
14 | CCOc1ccc(C2=C(c3ccc(O[C@H]4CCN(CCCF)C4)nc3)c3ccc(O)cc3SCC2)c(F)n1 [Example 208, 4-(6-ethoxy-2-fluoro-3-pyridyl)-5-[6-[(3S)-1-(3-fluoropropyl)pyrrolidin-3-yl]oxy-3-pyridyl]-2,3-dihydro-1-benzothiepin-8-ol] | 4 | 0.6 | 7 | 0.7 | 5 | 0.2 | 0.4 | 86 | – | – | –
15 | [2H]C([2H])([2H])Oc1ccc(C2=C(c3ccc(O[C@H]4CCN(CCCF)C4)cc3)c3ccc(O)cc3SCC2)c(F)c1 [Example 209, 5-[4-[(3S)-1-(3-fluoropropyl)pyrrolidin-3-yl]oxyphenyl]-4-[2-fluoro-4-(trideuteriomethoxy)phenyl]-2,3-dihydro-1-benzothiepin-8-ol] | 4 | 2 | 35 | 0.7 | 20 | 0.3 | 0.4 | 92 | – | – | –
16 | Cc1ccc(C2=C(c3ccc(O[C@H]4CCN(CCCF)C4)cc3)c3ccc(C(=O)O)cc3SCC2)c(F)c1 [Example 210, 4-(2-fluoro-4-methyl-phenyl)-5-[4-[(3S)-1-(3-fluoropropyl)pyrrolidin-3-yl]oxyphenyl]-2,3-dihydro-1-benzothiepine-8-carboxylic acid] | 15 | 103 | 2220 | 1 | 1330 | 0.8 | 2 | 89 | – | – | –
